# Data published in US10953027B2, “Active agents and methods of their use for the treatment of metabolic disorders and nonalcoholic fatty liver disease” (Flagship Pioneering Innovations V, Inc., priority 2018, dated 2021).
# Legend:
# [1] = Assay 1. Stability in Simulated Gastric Fluid (SGF); assay type: in vitro ADME; details: 1 μM, 37° C., SGF pH 1.6 with pepsin
# How it was run: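 Acylated compounds at a final 1 μM (diluted from 1 mM DMSO stock) were incubated at 37 °C in SGF of pH 1.6 NaCl buffer with FaSSIF powder and 0.1 mg/mL pepsin. Aliquots were quenched with acetonitrile at T0 and regular intervals, and degradation rates were determined by LC/MS.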
# [2] = Assay 2. Stability in Simulated Intestinal Fluid (SIF); assay type: in vitro ADME; details: 1 μM, 37° C., SIF pH 6.7 with pancreatin
# How it was run: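 Acylated compounds at 1 μM (from 1 mM DMSO stock) in fresh SIF: FaSSIF with pancreatin in pH 6.7 phosphate buffer, agitated at 37 °C. Aliquots from T0 onward quenched with 1 volume acetonitrile; LC/MS gives degradation rates.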
# [3] = tested on: C57BL/6 DIO mice; assay: DIO animal model of NAFLD/NASH in young mice (Example 16); assay type: in vivo; design: OGTT: unit not given beside the values; details: ad libitum in HFD; for % Weight change: 12 weeks; for OGTT: Day 82, 2 g/kg glucose PO; for OGTT / % HbA1c: ctrl HFD; for % Difference compared to ctrl: weight change vs HFD ctrl
# Description: Species (number, sex, age/weight): C57BL/6 DIO mice (120+10 spares, male, ˜18 weeks of age) from Jackson Laboratories, Stock #380050. Note: 18 week old DIO mice sent sent with a minimum body weight of 39 grams. Spare animals may be used to replace study animals, as required, euthanized after completion of dose administration or transferred to Testing Facility Docket 07-12.
# Cage Side Observations (Animal Health Checks): Cage side animal's health checks will be performed at least once daily to check for general health, mortality and moribundity. Clinical Observations: Clinical observations will be performed per exception. Body Weights: Body weights for all animals will be recorded prior to Day 1 and at least twice weekly thereafter, including prior to necropsy ([…]).
# Dose Administration: Dosing for Groups 3-8 will be provided ad libitum in the diet. Dosing for Groups 9 (Saline) and 10 (Semaglutide at 123.4 μg/kg) in a 5 mL/kg volume, will begin on Day 1, and be performed 3 times weekly for 12 weeks by SC administration. Residual Test Article: All residual high fat diets will be frozen at nominally −20° C., and at the end of the study, several pellets of the diets for groups 2-9 (in 50-ml conical tubes) will be shipped to Sponsor, and the rest will be discarded. Residual control diets (group 1) will be stored ambient, and at the end of the study, several pellets in a 50 mL conical tube will be shipped to Sponsor and the rest is discarded. Residual test material for Group 10 will be stored at nominally −70° C., and at the end of the study, an aliquot of test material will be shipped to Sponsor, and the rest will be discarded.
# (§1) Oral Glucose Tolerance Test (oGTT) On Day 82 (+/−2 days) an oGTT will be performed. Following an approximate 4 hour fast, 2 g/kg glucose (50% Dextrose diluted in sterile water for injection to a concentration of 0.4 g/mL) will be administered at 5 mL/kg via oral gavage (PO). Blood will be collected pre-glucose challenge (t=0) and at t=15, 30, 60, 90, and 120 minutes following the glucose challenge. Whole blood glucose levels will be evaluated at all time points using a handheld glucometer and will be reported in the Data Submission. This will be scheduled on a Tuesday or Thursday to avoid Group 9/10 dosing days.
# as §1, with “Submission.” for “Submission. This will be scheduled on a Tuesday or Thursday to avoid Group 9/10 dosing days.”
# [4] = tested on: Mouse 3T3-L1 cells; assay: Mouse adipocyte lipolysis assay; assay type: cell-based; details: for activity at 3000 µM: 3 mM
# Procedure: Once the cells became confluent, they were seeded into a tissue culture treated 96 well plate. […] After 14 days of differentiation, cells were treated with compounds of interest. After 24 hours post-treatment, the cell viability was assessed using CellTiter-Glo Luminescent Cell Viability Assay from Promega, and lipolysis was determined using Lipolysis Assay Kit from ZenBio.
# [5] = tested on: Mouse myocyte; assay: Mouse myocyte lipolysis assay; assay type: cell-based; details: for activity at 3000 µM: 3 mM
# Procedure: Cells were obtained from ATCC and cultured in Dulbecco's Modified Eagle's medium (DMEM) containing 20% fetal bovine serum and 1% penicillin/streptomycin at 37° C. in an incubator with 5% CO2. Once the cells became confluent, they were seeded into a tissue culture treated 96 well plate. The next day, the medium containing DMEM with 2% equine serum was used to start differentiation. Once cells were fully differentiated, they were treated with indicated compounds.
# [6] = tested on: naïve CD4+ T cells; assay: Human regulatory T cell differentiation assay; assay type: cell-based; details: 6 days
# Procedure: Peripheral blood mononuclear cells (PBMCs) from whole blood donated by health volunteers were separated by Ficoll-Paque gradient centrifugation and naïve CD4^+ T cells were subsequently isolated using magnet beads (EasySep™ Human Naïve CD4^+ T Cell Isolation Kit, Cambridge, Mass.). For regulatory T cell (Treg) differentiation assay, naïve CD4^+ T cells were cultured (1-10×10^4 cells) in CTS OpTmizer medium for 6 days and stimulated with 5 ng/ml TGF-β, 100 U/ml IL-2, and ImmunoCult™ Human […] T Cell Activator; Stemcell #10990) with/without our Compounds. Cell viability was determined using a viability dye (eBioscience Fixable Viability Dye eFluor 780: ThermoFisher 65-0865-14) at 1:500 dilution. The cells were gated for Treg, defined as Live, CD11c^−, CD14^−, CD19^−, CD8^−, CD4^+, CD3^+, CD25^+, FOXP3^+. Percent (%) Tregs were calculated as percentage of CD4^+, CD25^+, FOXP3^+ cells over total CD4^+ T cells. Statistical analysis was performed with GraphPad Prism Software Using One-Way ANOVA.
# [7] = Mus musculus, 3T3-L1, 24 hours, read-out: Lipolysis Free Fatty Acids % DMSO
# [8] = Mus musculus, read-out: Free glycerol % DMSO
structure (smiles),measurement,setting,value
"CCCC(=O)Oc1cc(OC(=O)CCC)c2c(=O)c(OC(=O)CCC)c(-c3ccc(OC(=O)CCC)c(OC(=O)CCC)c3)oc2c1 [Compound 15, [2-butanoyloxy-4-[3,5,7-tri(butanoyloxy)-4-oxo-chromen-2-yl]phenyl] butanoate]",Assay 1 (SGF) (% Remaining @ 1 hours),[1],C (C: >75% of the tested compound remaining)
same,Assay 2 (SIF) (% @ Remaining 4 hours),[2],B (B: 25-75% of the tested compound remaining)
same,% Weight change,[3],23%
same,OGTT,[3],32722
same,% HbA1c,[3],6.50%
same,% Difference compared to ctrl,[3],0%
CCC(=O)O [Propionic acid],activity at 3000 µM,[4]; [7],≤ 50%
same,activity at 3000 µM,[5]; [8],50 to 70%
same,Cell viability % DMSO,[6]; 3 mM,= (90%≥ ≤110%: =)
O=C[C@H](O)[C@@H](O)[C@@H](O)CO [L-arabinose],activity at 500 µM,"[4]; Mus musculus, 3T3-L1, 0.5 mM, 24 hours, read-out: Lipolysis Free Fatty Acids % DMSO",50 to 70%
same,activity at 1000 µM,"[4]; Mus musculus, 3T3-L1, 1 mM, 24 hours, read-out: Lipolysis Free Fatty Acids % DMSO",50 to 70%
same,activity at 500 µM,"[5]; Mus musculus, 0.5 mM, read-out: Free glycerol % DMSO",70 to 90%
same,activity at 1000 µM,"[5]; Mus musculus, 1 mM, read-out: Free glycerol % DMSO",70 to 90%
same,Cell viability % DMSO,[6]; 0.5 mM,= (90%≥ ≤110%: =)
same,Cell viability % DMSO,[6]; 1 mM,= (90%≥ ≤110%: =)
same,activity at 500 µM,"[6]; Homo sapiens, CD4+ T, 144 h, 0.5 mM, read-out: Treg induction % DMSO",90 to 110%
same,activity at 1000 µM,"[6]; Homo sapiens, CD4+ T, 144 h, 1 mM, read-out: Treg induction % DMSO",90 to 110%
CC(O)CC(=O)[O-].[Na+] (stereo not drawn) [Sodium BHB],Lipolysis Free Fatty Acids % DMSO,"[4]; 0.2 mM, 24 hours",++ (50> ≤70%: ++)
same,Lipolysis Glycerol % change,"[4]; 0.2 mM, 24 hours",+ (70%> ≤90%: +)
same,cell viability (CellTiter-Glo),"[4]; 0.2 mM, 24 hours post-treatment",86 % of DMSO control
same,Lipolysis Free Fatty Acids % DMSO,"[4]; 2 mM, 24 hours",++ (50> ≤70%: ++)
same,Lipolysis Glycerol % change,"[4]; 2 mM, 24 hours",++ (50> ≤70%: ++)
same,Lipolysis Free Fatty Acids % DMSO,"[4]; 20 mM, 24 hours",+ (70%> ≤90%: +)
same,Lipolysis Glycerol % change,"[4]; 20 mM, 24 hours",++ (50> ≤70%: ++)
same,Free glycerol % DMSO,[5]; 0.2 mM,++ (50> <70%: ++)
same,Free glycerol % DMSO,[5]; 2 mM,++ (50> <70%: ++)
same,Cell viability % DMSO,[6]; 2 mM,= (90%≥ ≤110%: =)
same,Treg induction % DMSO,[6]; 2 mM,+ (110%> ≤130%: +)
same,Cell viability % DMSO,[6]; 20 mM,− (<90%: −)
same,Treg induction % DMSO,[6]; 20 mM,= (90%≥ ≤110%: =)
CCCC(=O)O [Butyric acid],activity at 3000 µM,[4]; [7],50 to 70%
same,activity at 3000 µM,[5]; [8],< 50%
"CC[C@H]1[C@@H](O)[C@@H]2[C@H](CC[C@]3(C)[C@@H]([C@H](C)CCC(=O)O)CC[C@@H]23)[C@@]2(C)CC[C@@H](O)C[C@@H]12 [Obeticholic acid, obeticholic acid]",activity at 100 µM,"[4]; Mus musculus, 3T3-L1, 100 μM, 24 hours, read-out: Lipolysis Free Fatty Acids % DMSO",90 to 100%
same,activity at 100 µM,"[5]; Mus musculus, 100 μM, read-out: Free glycerol % DMSO",90 to 100%
same,Cell viability % DMSO,[6]; 100 uM,= (90%≥ ≤110%: =)
same,activity at 100 µM,"[6]; Homo sapiens, CD4+ T, 144 h, 100 uM, read-out: Treg induction % DMSO",110 to 130%
"CCCC(=O)OCC[C@@H](C)OC(=O)Oc1ccc(/C=C/c2cc(OC(=O)O[C@H](C)CCOC(=O)CCC)cc(OC(=O)O[C@H](C)CCOC(=O)CCC)c2)cc1 [Compound 78, (3R,3′R)-((((5-((E)-4-(((((R)-4-(butyryloxy)butan-2-yl)oxy)carbonyl)oxy)styryl)-1,3-phenylene)bis(oxy))bis(carbonyl))bis(oxy))bis(butane-3,1-diyl) dibutyrate]",Assay 1 (SGF) (% Remaining @ 1 hours),[1],C (C: >75% of the tested compound remaining)
same,Assay 2 (SIF) (% @ Remaining 4 hours),[2],A (A: <25% of the tested compound remaining)
same,% Weight change,[3],21%
same,OGTT,[3],29944
same,% HbA1c,[3],6.14%
same,% Difference compared to ctrl,[3],−2%
